The test system of one test is HGF/MET system. The experiment in a line: Phospho-MET ELISA. Format: cell-based. On the set-up: key: − indicates that the compound failed to significantly augment MET phosphorylation; + indicates maximum potency at or above 100 nM; ++ indicates maximum potency at or above 10 nM; +++ indicates maximum potency at or above 1 nM; ++++ indicates maximum potency at or above 0.1 nM. To be noted: HEK293 cells; with 1 ng/mL recombinant HGF; 15 minutes; augmentation of MET phosphorylation (pMET ELISA). Here is the method:
Compounds were screened for potency towards the HGF/MET system using phospho-MET (pMET) ELISA kits (Cell Signaling). pMET levels were detected in samples having low (1 ng/mL) and high (10 ng/mL) concentrations of HGF.
HEK293 cells were prepared by passage into 6-well multi-plates and grown at 37° C. at 5% CO2 in DMEM+10% FBS until approximately 90% confluent. Cells were then starved for at least 8 hours in serum-free growth media.
Exemplary compounds were prepared in DMEM+0.1% FBS, diluted and added to treatment media with 1 ng/mL recombinant HGF protein (R&D Systems). Cells were incubated in triplicate at 37° C. and 5% CO2 for 15 minutes. Samples were then treated with 180 μL ice-cold RIPA (radioimmunoprecipitation assay) buffer and cells were lysed on ice for 15 minutes. Lysates were cleared by centrifugation at 16,000-g for 15 minutes and the supernatant was retained. Samples were normalized using a BCA assay of lysates to determine protein concentrations across the samples.
Between 50 and 100 μg total protein lysate was loaded into ELISA wells in pMET Sandwich ELISA kit (Cell Signaling Catalog #7227C), ensuring equal protein load in each well. The ELISA was processed according to manufacturer's instructions. After color developed, absorbance was read on an optical plate reader at 450 nm.
Potency measurements were determined using peak efficacy by scaling test compound dose treatments along a scale of 1-10 between 1 ng/mL and 10 ng/mL HGF doses according to the following formula: […]
where y is the normalized data-point, x is the raw data point, A is the mean HGF at 1 ng/mL, and B is the mean HGF at 10 ng/mL.
(In general: An ELISA detects its analyte on a solid surface through an enzyme-linked reagent.)

Another test deals with MDCK cells. The experiment in a line: Cell scattering behavior assay. Format: cell-based. Set-up: key: − indicates that the compound failed to significantly promote cell scattering behavior; + indicates maximum potency at or above 100 nM; ++ indicates maximum potency at or above 10 nM; +++ indicates maximum potency at or above 1 nM; ++++ indicates maximum potency at or above 0.1 nM. To be noted: with 5 ng/mL HGF, 24 hours, normalized particle count compared to HGF treatment alone. Here is the method:
MDCK cells were grown under normal conditions and observed to spontaneously form tight colonies as they proliferate. MDCK cells respond to HGF treatment by moving away from each other (scattering), which is quantified to assess the amount of HGF/MET activation in the cell population. In this experiment, MDCK cells were plated in a 96-well format, treated with HGF and exemplary compounds, fluorescently stained, imaged in large fields, and scattering behavior was quantified. Quantification was determined by analyzing the number of continuous groups of cells compared to the total stained area imaged (normalized particle counts).
MDCK cells were plated at low density in black-walled imaging plates and allowed to attach overnight at 37° C. and 5% CO2 in DMEM+10% FBS. Cells were then starved to 2 hours in DMEM without FBS (“starve media”). Samples containing exemplary compounds were prepared in DMEM without FBS and included 5 ng/mL HGF protein (“treatment media”). A control curve was also prepared for each plate using HGF concentrations of 0, 5, 10, and 20 ng/mL. Starve media was replaced with treatment media and cells were incubated for 24 hours at 37° C. and 5% CO2.
After incubation, cells were fixed by replacing treatment media with cold ethanol and incubating for 20 minutes at 4° C. Cells were then rehydrated by washing with PBS and then with stain solution (fluorescent wheat germ agglutinin; WGA488 at 20 μg/mL in PBS). Cells were incubated with stain solution 30 minutes at room temperature after which stain solution was replaced with fresh PBS.
Fields of cells were imaged using an iCyte high content imager in the green wavelength. Images were converted to binary and analyzed for particle size and particle count. For the purpose of analysis, an individual cell touching no other cells or separated colonies of cells were identified as particles, and particle counts were normalized by the total signal area to account for differences in cell number. […] Compound potency was assessed by statistical increase in normalized particle count compared to HGF treatment alone.

As to `CCCCN1CC2N(C(=O)c3ccc(C(F)(F)F)cc3)CCC(=O)N2C(C)C1=O` (centres unmarked) [Compound 21], the Potency entry in the test on HGF/MET system and in the test with MDCK cells was “−” throughout.
Take `CCC(C)CN1CC2N(Cc3ccc(OC(F)F)cc3)CCC(=O)N2C(CC(N)=O)C1=O` (centres unmarked) [Compound 50, 2-(1-(4-(difluoromethoxy)benzyl)-8-(2-methylbutyl)-4,7-dioxooctahydro-2H-pyrazino[1,2-a]pyrimidin-6-yl)acetamide]: the Potency entry with HGF/MET system and in the test on MDCK cells was “−” each time.
`CC1C(=O)N(CC2CCCO2)CC2N(C(=O)c3ccc(OC(F)F)cc3)CCC(=O)N12` (centres unmarked) [Compound 27]: the Potency entry in the test with HGF/MET system was “−”.
Turning to `CCC(C)CN1CC2N(Cc3ccc(C(F)(F)F)c(Cl)c3)CCC(=O)N2C(C)C1=O` (centres unmarked) [Compound 43], the Potency entry in the test on HGF/MET system and in the test on MDCK cells was “−” each time.
For `CC1C(=O)N(CCO)CC2N(C(=O)c3ccc(OC(F)F)cc3)CCC(=O)N12` (centres unmarked) [Compound 34, 1-(4-(difluoromethoxy)benzoyl)-8-(2-hydroxyethyl)-6-methylhexahydro-4H-pyrazino[1,2-a]pyrimidine-4,7(6H)-dione], the Potency result in the test on HGF/MET system and with MDCK cells was “−” each time.
In the case of `CC1C(=O)N(CCC2CCC2)CC2N(Cc3ccc(OC(F)F)cc3)CCC(=O)N12` (centres unmarked) [Compound 40], the Potency result with HGF/MET system was “−”.
For the molecule `CCC(C)CN1CC2N(C(=O)c3ccc(Cl)cc3)CCC(=O)N2C(C)C1=O` (centres unmarked) [Compound 10, 1-(4-chlorobenzoyl)-6-methyl-8-(2-methylbutyl)hexahydro-4H-pyrazino[1,2-a]pyrimidine-4,7(6H)-dione], the Potency result in the test on HGF/MET system and in the test on MDCK cells was “−” in each case.
`CC1C(=O)N(CC2CCCC2)CC2N(C(=O)c3ccc(OC(F)F)cc3)CCC(=O)N12` (centres unmarked) [Compound 13]: the Potency result in the test with HGF/MET system and in the test with MDCK cells was “−” each time.
Consider `CCC(C)CN1CC2N(Cc3ccc(OC(F)F)cc3)CCC(=O)N2C(CF)C1=O` (centres unmarked) [Compound 47, 1-(4-(difluoromethoxy)benzyl)-6-(fluoromethyl)-8-(2-methylbutyl)hexahydro-4H-pyrazino[1,2-a]pyrimidine-4,7(6H)-dione], for which the Potency result in the test on HGF/MET system is “−”.
In the case of `CCC(C)CN1CC2N(Cc3ccc(C(F)(F)F)cc3)CCC(=O)N2C(CF)C1=O` (centres unmarked) [Compound 48, 6-(fluoromethyl)-8-(2-methylbutyl)-1-(4-(trifluoromethyl)benzyl)hexahydro-4H-pyrazino[1,2-a]pyrimidine-4,7(6H)-dione], in the test with HGF/MET system, the Potency entry is on record as “−”.
For the molecule `CC(C)N1CC2N(C(=O)c3ccc(C(F)(F)F)cc3)CCC(=O)N2C(C)C1=O` (centres unmarked) [Compound 24], the Potency entry in the test on HGF/MET system and with MDCK cells was “−” each time.
In the case of `CC1C(=O)N(CC2CCC2)CC2N(C(=O)c3ccc(C(F)(F)F)cc3)CCC(=O)N12` (centres unmarked) [Compound 16], the Potency result in the test with HGF/MET system and with MDCK cells was “−” throughout.
In the case of `COCCN1CC2N(C(=O)c3ccc(OC(F)F)cc3)CCC(=O)N2C(C)C1=O` (centres unmarked) [Compound 32], the Potency entry with HGF/MET system and in the test on MDCK cells was “−” throughout.
For the molecule `C=CCCN1CC2N(C(=O)c3ccc(OC(F)F)cc3)CCC(=O)N2C(C)C1=O` (centres unmarked) [Compound 18], the Potency entry in the test with HGF/MET system and with MDCK cells was “−” in each case.
In the case of `CC1C(=O)N(CCC2CC2)CC2N(C(=O)c3ccc(OC(F)F)cc3)CCC(=O)N12` (centres unmarked) [Compound 31], the Potency result with HGF/MET system and with MDCK cells was “−” in each case.
On to `CC1C(=O)N(CCc2cccs2)CC2N(C(=O)c3ccc(OC(F)F)cc3)CCC(=O)N12` (centres unmarked) [Compound 26], for which the Potency result in the test with HGF/MET system and in the test with MDCK cells was “−” each time.
With `CC1C(=O)N(CCc2ccccc2)CC2N(C(=O)c3ccc(OC(F)F)cc3)CCC(=O)N12` (centres unmarked) [Compound 28], the Potency result in the test on HGF/MET system and in the test with MDCK cells was “−” in each case.
For `C=CCCN1CC2N(Cc3ccc(OC(F)F)cc3)CCC(=O)N2C(C)C1=O` (centres unmarked) [Compound 39], the Potency entry in the test with HGF/MET system and in the test with MDCK cells was “−” in each case.
For the molecule `CC1C(=O)N(CCS(C)(=O)=O)CC2N(C(=O)c3ccc(OC(F)F)cc3)CCC(=O)N12` (centres unmarked) [Compound 36], the Potency result with HGF/MET system and in the test on MDCK cells was “−” each time.
Consider `CC1C(=O)N(CCc2ccco2)CC2N(C(=O)c3ccc(OC(F)F)cc3)CCC(=O)N12` (centres unmarked) [Compound 25], for which the Potency result in the test with HGF/MET system and with MDCK cells was “−” each time.
Take `CC1C(=O)N(CCN)CC2N(C(=O)c3ccc(OC(F)F)cc3)CCC(=O)N12` (centres unmarked) [Compound 35, 8-(2-aminoethyl)-1-(4-(difluoromethoxy)benzoyl)-6-methylhexahydro-4H-pyrazino[1,2-a]pyrimidine-4,7(6H)-dione]: the Potency entry in the test with HGF/MET system and with MDCK cells was “−” each time.
Turning to `CC1C(=O)N(CCc2ccncc2)CC2N(C(=O)c3ccc(OC(F)F)cc3)CCC(=O)N12` (centres unmarked) [Compound 29], the Potency result with HGF/MET system is listed as “−”.
`COCCCN1CC2N(C(=O)c3ccc(OC(F)F)cc3)CCC(=O)N2C(C)C1=O` (centres unmarked) [Compound 33]: the Potency result with HGF/MET system and with MDCK cells was “−” each time.
As for `CC1C(=O)N(CCC2CCCC2)CC2N(Cc3ccc(F)cc3)CCC(=O)N12` (centres unmarked) [Compound 46, 8-(2-cyclopentylethyl)-1-(4-fluorobenzyl)-6-methylhexahydro-4H-pyrazino[1,2-a]pyrimidine-4,7(6H)-dione], the Potency entry in the test on HGF/MET system and in the test with MDCK cells was “−” in each case.
`CCCCN1CC2N(Cc3ccc(OC(F)F)cc3)CCC(=O)N2C(C)C1=O` (centres unmarked) [Compound 41]: the Potency entry in the test with HGF/MET system and with MDCK cells was “−” each time.
With `CC(C)CN1CC2N(C(=O)c3ccc(C(F)(F)F)cc3)CCC(=O)N2C(C)C1=O` (centres unmarked) [Compound 23], the Potency entry with HGF/MET system and in the test on MDCK cells was “−” in each case.
As to `CCC(C)CN1CC2N(Cc3c[nH]c4ccccc34)CCC(=O)N2C(C)C1=O` (centres unmarked) [Compound 44], the Potency entry in the test on HGF/MET system and in the test on MDCK cells was “−” throughout.
For `CC1C(=O)N(CCC2CCCC2)CC2N(Cc3ccc(OC(F)F)cc3)CCC(=O)N12` (centres unmarked) [Compound 38], in the test on HGF/MET system, the Potency result is “−”.
`CC1C(=O)N(CCC2CCC2)CC2N(Cc3ccc(F)cc3)CCC(=O)N12` (centres unmarked) [Compound 45, 8-(2-cyclobutylethyl)-1-(4-fluorobenzyl)-6-methylhexahydro-4H-pyrazino[1,2-a]pyrimidine-4,7(6H)-dione]: the Potency result with HGF/MET system is “−”.
Turning to `CC1C(=O)N(CC2CCCC2)CC2N(C(=O)c3ccc(C(F)(F)F)cc3)CCC(=O)N12` (centres unmarked) [Compound 15], the Potency result with HGF/MET system and in the test with MDCK cells was “−” in each case.

For the origin of these results see patent US20250041307A1, “Uses of Bicyclic Compounds for the Treatment of Diseases” (Athira Pharma, Inc., priority 2021, published 2025).
